Where “and” joins values, the source holds several entries; their conditions need not be identical. Equal entries are not always repeated.
What was measured:
Test in all cases: Greenhouse test, pre-emergence treatment
ALOMY = assay type: in vivo, Alopecurus myosuroides; settings: pre-emergence, pre-emergence, 20 DAT
Method in brief: (§1)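 Seeds were sown in loamy sand with approximately 3.0% humus, then sprayed at once with actives suspended or emulsified in water. Pots were watered, hooded until rooting, held at 10-25° C. or 20-35° C. by species for 2 to 4 weeks, and scored 0 (no damage) to 100 (no emergence/complete destruction).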

PHACA = assay type: in vivo, Phalaris canariensis; settings: Phalaris canariensis, pre-emergence, 480 h, pre-emergence, 20 DAT, read-out: observed % activity 20 DAT
Source text: The culture containers used were plastic flowerpots containing loamy sand with approximately 3.0% of humus as the substrate. The seeds of the test plants were sown separately for each species.
For the pre-emergence treatment, the active ingredients, which had been suspended or emulsified in water, were applied directly after sowing by means of finely distributing nozzles. The containers were irrigated gently to promote germination and growth and subsequently covered with transparent plastic hoods until the plants had rooted. This cover caused uniform germination of the test plants, unless this had been impaired by the active ingredients.
Depending on the species, the plants were kept at 10-25° C. or 20-35° C., respectively.
The test period extended over 2 to 4 weeks. During this time, the plants were tended, and their response to the individual treatments was evaluated.
Evaluation was carried out using a scale from 0 to 100. 100 means no emergence of the plants, or complete destruction of at least the aerial moieties, and 0 means no damage, or normal course of growth. A moderate herbicidal activity is given at values of at least 60, a good herbicidal activity is given at values of at least 70, and a very good herbicidal activity is given at values of at least 85.
The respective stated components a and b, and if appropriate, c were formulated as a 10% by weight strength emulsion concentrate and, with addition of the amount of solvent system, introduced into the spray liquor used for applying the active compound.
In the examples, the solvent used was water.
In the examples below, using the method of S. R. Colby (1967) “Calculating synergistic and antagonistic responses of herbicide combinations”, Weeds 15, p. 22ff., the value E, which is expected if the activity of the individual active compounds is only additive, was calculated. E=X+Y−(X·Y/100) where • X=percent activity using active compound a at an application rate A; • Y=percent activity using active compound b at an application rate B; • E=expected activity (in %) by a+b at application rates A+B.
If the value found experimentally is higher than the value E calculated according to Colby, a synergistic effect is present.

LOLMU = assay type: in vivo, Lolium multiflorum; settings: Lolium multiflorum, pre-emergence, 480 h, pre-emergence, 20 DAT, read-out: observed % activity 20 DAT
Method in brief: as §1

KCHSC = assay type: in vivo, Kochia scoparia; settings: pre-emergence, 20 DAT
Method in brief: as §1

ECHCG = assay type: in vivo, Echinocloa crus-galli; settings: Echinochloa crus-galli, 480 h, 20 DAT, read-out: observed % activity 20 DAT
Method in brief: as §1

POLCO = assay type: in vivo, Polygonum convolvulus; settings: pre-emergence, 20 DAT
Method in brief: as §1

GERPU = assay type: in vivo, Geranium pusillum; settings: Geranium pusillum, pre-emergence, 480 h, pre-emergence, 20 DAT, read-out: observed % activity 20 DAT
Method in brief: as §1

SETFA = assay type: in vivo, Setaria faberi; settings: 20 DAT
Method in brief: as §1

SMILES: CC(C)(F)c1nc(N)nc(Nc2c(F)c(F)cc(F)c2F)n1 [compound 2, 6-(1-Fluoro-1-methyl-ethyl)-N4-(2,3,5,6-tetrafluorophenyl)-1,3,5-triazine-2,4-diamine]
- inhibition at 1 g/ha (ALOMY; Alopecurus myosuroides, 480 h, ALOMY, use rate 1 g ai/ha, read-out: observed % activity 20 DAT): 60%
- inhibition at 2 g/ha (ALOMY; Alopecurus myosuroides, 480 h, ALOMY, use rate 2 g ai/ha, read-out: observed % activity 20 DAT): 70%
- inhibition at 4 g/ha (ALOMY; Alopecurus myosuroides, 480 h, ALOMY, use rate 4 g ai/ha, read-out: observed % activity 20 DAT): 90%
- pest or weed control at 1 g/ha (ALOMY; Alopecurus myosuroides, 480 h, use rate 1 g ai/ha, read-out: observed % activity 20 DAT): 45%
- pest or weed control at 2 g/ha (ALOMY; Alopecurus myosuroides, 480 h, use rate 2 g ai/ha, read-out: observed % activity 20 DAT): 75%
- pest or weed control at 4 g/ha (ALOMY; Alopecurus myosuroides, 480 h, use rate 4 g ai/ha, read-out: observed % activity 20 DAT): 90%
- observed % activity 20 DAT (ALOMY; ALOMY, use rate 4 g ai/ha): 95%
- observed % activity 20 DAT (ALOMY; ALOMY, use rate 8 g ai/ha): 50% and 80% and 95%
- inhibition at 1 g/ha (PHACA; PHACA, use rate 1 g ai/ha): 20%
- inhibition at 2 g/ha (PHACA; PHACA, use rate 2 g ai/ha): 70%
- pest or weed control at 1 g/ha (PHACA; use rate 1 g ai/ha): 20%
- pest or weed control at 4 g/ha (PHACA; use rate 4 g ai/ha): 95%
- pest or weed control at 8 g/ha (PHACA; use rate 8 g ai/ha): 85%
- inhibition at 1 g/ha (LOLMU; LOLMU, use rate 1 g ai/ha): 40%
- inhibition at 2 g/ha (LOLMU; LOLMU, use rate 2 g ai/ha): 80%
- inhibition at 4 g/ha (LOLMU; LOLMU, use rate 4 g ai/ha): 95%
- pest or weed control at 1 g/ha (LOLMU; use rate 1 g ai/ha): 20%
- pest or weed control at 2 g/ha (LOLMU; use rate 2 g ai/ha): 80%
- pest or weed control at 4 g/ha (LOLMU; use rate 4 g ai/ha): 95%
- pest or weed control at 1 g/ha (KCHSC; Bassia scoparia, 480 h, use rate 1 g ai/ha, read-out: observed % activity 20 DAT): 0%
- pest or weed control at 2 g/ha (KCHSC; Bassia scoparia, 480 h, use rate 2 g ai/ha, read-out: observed % activity 20 DAT): 50%
- inhibition at 1 g/ha (KCHSC; Bassia scoparia, 480 h, KCHSC, use rate 1 g ai/ha, read-out: observed % activity 20 DAT): 45%
- inhibition at 2 g/ha (KCHSC; Bassia scoparia, 480 h, KCHSC, use rate 2 g ai/ha, read-out: observed % activity 20 DAT): 80%
- inhibition at 4 g/ha (KCHSC; Bassia scoparia, 480 h, KCHSC, use rate 4 g ai/ha, read-out: observed % activity 20 DAT): 90%
- inhibition at 8 g/ha (KCHSC; Bassia scoparia, 480 h, KCHSC, use rate 8 g ai/ha, read-out: observed % activity 20 DAT): 80%
- observed % activity 20 DAT (KCHSC; KCHSC, use rate 8 g ai/ha): 95%
- inhibition at 1 g/ha (ECHCG; ECHCG, use rate 1 g ai/ha): 65%
- inhibition at 2 g/ha (ECHCG; ECHCG, use rate 2 g ai/ha): 98%
- pest or weed control at 1 g/ha (ECHCG; use rate 1 g ai/ha): 65%
- pest or weed control at 1 g/ha (POLCO; Fallopia convolvulus, 480 h, use rate 1 g ai/ha, read-out: observed % activity 20 DAT): 60%
- pest or weed control at 2 g/ha (POLCO; Fallopia convolvulus, 480 h, use rate 2 g ai/ha, read-out: observed % activity 20 DAT): 70%
- inhibition at 2 g/ha (POLCO; Fallopia convolvulus, 480 h, POLCO, use rate 2 g ai/ha, read-out: observed % activity 20 DAT): 70%
- inhibition at 4 g/ha (POLCO; Fallopia convolvulus, 480 h, POLCO, use rate 4 g ai/ha, read-out: observed % activity 20 DAT): 95%
- observed % activity 20 DAT (POLCO; POLCO, use rate 1 g ai/ha): 15%
- pest or weed control at 1 g/ha (GERPU; use rate 1 g ai/ha): 0%
- pest or weed control at 2 g/ha (GERPU; use rate 2 g ai/ha): 0%
- inhibition at 1 g/ha (SETFA; Setaria faberi, 480 h, SETFA, use rate 1 g ai/ha, read-out: observed % activity 20 DAT): 80%
- inhibition at 2 g/ha (SETFA; Setaria faberi, 480 h, SETFA, use rate 2 g ai/ha, read-out: observed % activity 20 DAT): 95%
- inhibition at 4 g/ha (SETFA; Setaria faberi, 480 h, SETFA, use rate 4 g ai/ha, read-out: observed % activity 20 DAT): 95%
- observed % activity 20 DAT (SETFA; use rate 2 g ai/ha): 75% and 65%

Source: patent US9999222B2, “Herbicidal combination comprising azines” (BASF SE, priority 2014, dated 2018)
